Test results taken from EPA's ToxValDB 9.5.

Tested on: Rattus norvegicus
Conditions: short-term, duration: 28 days, oral, gavage, Sprague-Dawley

Q: What does the source list for `O=S(=O)(O)C(F)(F)C(F)(F)C(F)(F)C(F)(F)F` [Perfluorobutanesulfonic acid]?
A: LOEL (F, Clinical chemistry_Alanine aminotransferase): 250 mg/kg-day; NOEL (F, Clinical chemistry_Albumin): 1000 mg/kg-day; NOEL (F, Clinical chemistry_Albumin/globulin ratio): 1000 mg/kg-day; LOEL (F, Clinical chemistry_Alkaline phosphatase): 500 mg/kg-day; LOEL (F, Clinical chemistry_Aspartate aminotransferase): 500 mg/kg-day; LOEL (F, Clinical chemistry_Cholesterol): 500 mg/kg-day; LOEL (F, Clinical chemistry_Direct bilirubin): 500 mg/kg-day; LOEL (F, Clinical chemistry_Free thyroxine): 62.6 mg/kg-day; NOEL (F, Clinical chemistry_Globulin): 1000 mg/kg-day; NOEL (F, Clinical chemistry_Sorbitol dehydrogenase): 1000 mg/kg-day; NOEL (F, Clinical chemistry_Testosterone): 1000 mg/kg-day; NOEL (F, Clinical chemistry_Thyroid stimulating hormone): 1000 mg/kg-day; LOEL (F, Clinical chemistry_Total bile acids): 250 mg/kg-day; LOEL (F, Clinical chemistry_Total bilirubin): 500 mg/kg-day; NOEL (F, Clinical chemistry_Total protein): 1000 mg/kg-day; LOEL (F, Clinical chemistry_Total thyroxine): 62.6 mg/kg-day; LOEL (F, Clinical chemistry_Total triiodothyronine): 62.6 mg/kg-day; NOEL (F, Clinical chemistry_Triglycerides): 1000 mg/kg-day; LOEL (F, Gene expression_Acox1): 250 mg/kg-day; LOEL (F, Gene expression_Cyp2b1): 62.6 mg/kg-day; LOEL (F, Gene expression_Cyp2b2): 62.6 mg/kg-day; LOEL (F, Gene expression_Cyp4a1): 62.6 mg/kg-day; NOEL (F, Hematology_Erythrocytes): 1000 mg/kg-day; NOEL (F, Hematology_Hematocrit): 1000 mg/kg-day; NOEL (F, Hematology_Hemoglobin): 1000 mg/kg-day; NOEL (F, Hematology_Leukocytes): 1000 mg/kg-day; LOEL (F, Hematology_Reticulocytes): 125 mg/kg-day; NOEL (F, Hematology_S. neutrophils): 1000 mg/kg-day; LOEL (F, Nonneoplastic effects_Bone marrow - Hypocellularity): 1000 mg/kg-day; LOEL (F, Nonneoplastic effects_Kidney - Papilla, necrosis): 1000 mg/kg-day; LOEL (F, Nonneoplastic effects_Liver - Hepatocyte, cytoplasmic alteration): 500 mg/kg-day; LOEL (F, Nonneoplastic effects_Liver - Hepatocyte, hypertrophy): 500 mg/kg-day; NOEL (F, Nonneoplastic effects_Liver - Hepatocyte, vacuolization cytoplasmic): 1000 mg/kg-day; LOEL (F, Nonneoplastic effects_Liver - Necrosis): 1000 mg/kg-day; LOEL (F, Nonneoplastic effects_Nose - Olfactory epithelium, degeneration): 125 mg/kg-day; LOEL (F, Nonneoplastic effects_Nose - Olfactory epithelium, hyperplasia): 250 mg/kg-day; LOEL (F, Nonneoplastic effects_Nose - Olfactory epithelium, inflammation, suppurative): 1000 mg/kg-day; LOEL (F, Nonneoplastic effects_Nose - Olfactory epithelium, necrosis): 1000 mg/kg-day; NOEL (F, Nonneoplastic effects_Spleen - Extramedullary hematopoiesis, decreased): 1000 mg/kg-day; NOEL (F, Nonneoplastic effects_Stomach, forestomach - Epithelium, hyperplasia): 1000 mg/kg-day; LOEL (F, Nonneoplastic effects_Thymus - Atrophy): 1000 mg/kg-day; LOEL (F, Organ weights_Heart - Absolute): 500 mg/kg-day; NOEL (F, Organ weights_Heart - Relative): 1000 mg/kg-day; LOEL (F, Organ weights_Liver - Absolute): 250 mg/kg-day; LOEL (F, Organ weights_Liver - Relative): 125 mg/kg-day; NOEL (F, Organ weights_Lung - Absolute): 1000 mg/kg-day; NOEL (F, Organ weights_Lung - Relative): 1000 mg/kg-day; NOEL (F, Organ weights_R. adrenal gland - Absolute): 1000 mg/kg-day; NOEL (F, Organ weights_R. adrenal gland - Relative): 1000 mg/kg-day; NOEL (F, Organ weights_R. kidney - Absolute): 1000 mg/kg-day; LOEL (F, Organ weights_R. kidney - Relative): 62.6 mg/kg-day; LOEL (F, Organ weights_Spleen - Absolute): 500 mg/kg-day; NOEL (F, Organ weights_Spleen - Relative): 1000 mg/kg-day; LOEL (F, Organ weights_Thymus - Absolute): 500 mg/kg-day; NOEL (F, Organ weights_Thymus - Relative): 1000 mg/kg-day; LOEL (F, Reproductive toxicity_Altered estrous cyclicity): 250 mg/kg-day; LOEL (F, Survival rates): 250 mg/kg-day; LOEL (F, body weight): 1000 mg/kg-day; LOEL (M, Clinical chemistry_Alanine aminotransferase): 500 mg/kg-day; NOEL (M, Clinical chemistry_Albumin): 1000 mg/kg-day; LOEL (M, Clinical chemistry_Albumin/globulin ratio): 62.6 mg/kg-day; LOEL (M, Clinical chemistry_Alkaline phosphatase): 250 mg/kg-day; LOEL (M, Clinical chemistry_Aspartate aminotransferase): 500 mg/kg-day; LOEL (M, Clinical chemistry_Cholesterol): 62.6 mg/kg-day; LOEL (M, Clinical chemistry_Direct bilirubin): 500 mg/kg-day; LOEL (M, Clinical chemistry_Free thyroxine): 62.6 mg/kg-day; LOEL (M, Clinical chemistry_Globulin): 62.6 mg/kg-day; LOEL (M, Clinical chemistry_Sorbitol dehydrogenase): 500 mg/kg-day; NOEL (M, Clinical chemistry_Testosterone): 1000 mg/kg-day; NOEL (M, Clinical chemistry_Thyroid stimulating hormone): 1000 mg/kg-day; LOEL (M, Clinical chemistry_Total bile acids): 500 mg/kg-day; NOEL (M, Clinical chemistry_Total bilirubin): 1000 mg/kg-day; LOEL (M, Clinical chemistry_Total protein): 62.6 mg/kg-day; LOEL (M, Clinical chemistry_Total thyroxine): 62.6 mg/kg-day; LOEL (M, Clinical chemistry_Total triiodothyronine): 62.6 mg/kg-day; LOEL (M, Clinical chemistry_Triglycerides): 500 mg/kg-day; LOEL (M, Gene expression_Acox1): 125 mg/kg-day; LOEL (M, Gene expression_Acyl-CoA oxidase): 250 mg/kg-day; LOEL (M, Gene expression_Cyp2b1): 62.6 mg/kg-day; LOEL (M, Gene expression_Cyp2b2): 62.6 mg/kg-day; LOEL (M, Gene expression_Cyp4a1): 62.6 mg/kg-day; LOEL (M, Hematology_Erythrocytes): 125 mg/kg-day; LOEL (M, Hematology_Hematocrit): 125 mg/kg-day; LOEL (M, Hematology_Hemoglobin): 125 mg/kg-day; NOEL (M, Hematology_Leukocytes): 1000 mg/kg-day; LOEL (M, Hematology_Reticulocytes): 125 mg/kg-day; NOEL (M, Hematology_S. neutrophils): 1000 mg/kg-day; LOEL (M, Nonneoplastic effects_Bone marrow - Hypocellularity): 1000 mg/kg-day; LOEL (M, Nonneoplastic effects_Kidney - Papilla, necrosis): 1000 mg/kg-day; LOEL (M, Nonneoplastic effects_Liver - Hepatocyte, cytoplasmic alteration): 500 mg/kg-day; LOEL (M, Nonneoplastic effects_Liver - Hepatocyte, hypertrophy): 125 mg/kg-day; NOEL (M, Nonneoplastic effects_Liver - Hepatocyte, vacuolization cytoplasmic): 1000 mg/kg-day; LOEL (M, Nonneoplastic effects_Liver - Necrosis): 1000 mg/kg-day; LOEL (M, Nonneoplastic effects_Nose - Olfactory epithelium, degeneration): 250 mg/kg-day; LOEL (M, Nonneoplastic effects_Nose - Olfactory epithelium, hyperplasia): 250 mg/kg-day; LOEL (M, Nonneoplastic effects_Nose - Olfactory epithelium, inflammation, suppurative): 1000 mg/kg-day; LOEL (M, Nonneoplastic effects_Nose - Olfactory epithelium, necrosis): 1000 mg/kg-day; NOEL (M, Nonneoplastic effects_Spleen - Extramedullary hematopoiesis, decreased): 1000 mg/kg-day; LOEL (M, Nonneoplastic effects_Stomach, forestomach - Epithelium, hyperplasia): 1000 mg/kg-day; LOEL (M, Nonneoplastic effects_Thymus - Atrophy): 1000 mg/kg-day; LOEL (M, Organ weights_Heart - Absolute): 500 mg/kg-day; LOEL (M, Organ weights_Heart - Relative): 500 mg/kg-day; LOEL (M, Organ weights_Liver - Absolute): 125 mg/kg-day; LOEL (M, Organ weights_Liver - Relative): 62.6 mg/kg-day; NOEL (M, Organ weights_Lung - Absolute): 1000 mg/kg-day; NOEL (M, Organ weights_Lung - Relative): 1000 mg/kg-day; NOEL (M, Organ weights_R. adrenal gland - Absolute): 1000 mg/kg-day; NOEL (M, Organ weights_R. adrenal gland - Relative): 1000 mg/kg-day; LOEL (M, Organ weights_R. kidney - Absolute): 500 mg/kg-day; LOEL (M, Organ weights_R. kidney - Relative): 500 mg/kg-day; NOEL (M, Organ weights_Spleen - Absolute): 1000 mg/kg-day; NOEL (M, Organ weights_Spleen - Relative): 1000 mg/kg-day; LOEL (M, Organ weights_Thymus - Absolute): 500 mg/kg-day; LOEL (M, Organ weights_Thymus - Relative): 500 mg/kg-day; NOEL (M, Reproductive toxicity_Altered sperm parameters): 1000 mg/kg-day; LOEL (M, Survival rates): 1000 mg/kg-day; LOEL (M, body weight): 1000 mg/kg-day
